{
  "source": "patent US20250135012A1",
  "about": "“DENDRIMER CONJUGATES OF SMALL MOLECULE BIOLOGICS FOR INTRACELLULAR DELIVERY” (The Johns Hopkins University, priority 2021, published 2025)",
  "key": {"ERK1/2": {"test_system": "ERK1/2", "test": "Western blot, ERK1/2 phosphorylation in VEGF stimulated HUVEC", "assay_type": "cell-based, human", "conditions": "1 mM on a peptide basis, vs VEGF stimulated controls", "description": "(§1) Cells were treated with D-ALG1001 and ALG-1001 for 24 h before activation with VEGF for 5 minutes. […] Cells were lysed with TRIZOL® and processed as previously described for qPCR analysis.\nConcentration of protein was determined with the BCA protein assay kit (Thermo Scientific, Rockford, IL). Equal amount of protein was denatured and resolved on 4-15% TGX gels (Bio-Rad, Hercules, CA). Gels were transferred to nitrocellulose membranes, blocked with 3% Bovine Serum Albumin (“BSA”) at RT for 1 h, and probed for GAPDH, FAK, pFAK, MAPK, and pMAPK at 4° C. overnight. Membranes were washed thrice before incubation with HRP-conjugated secondary antibodies followed by incubation with chemiluminescent substrate for visualization.\nTo elucidate the mechanism through which D-ALG and ALG-1001 influence angiogenic function, cells were pre-treated with D-ALG and ALG-1001 for 24 h. The cells were then stimulated with a high dose of exogenous VEGF for 5 min after which the samples were collected for western blotting. The samples were probed for expression of total FAK, phospho-FAK (Y397), ERK1/2, phospho-ERK1/2, and Cyclophilin B (CycB) with CycB acting as the internal control."}, "VEGF-A": {"test_system": "VEGF-A", "test": "VEGF-A expression by VEGF stimulated endothelial cells", "assay_type": "cell-based, human", "conditions": "co-incubated with VEGF-A", "description": "as §1\nIn addition to examining pathway activation, the effects of D-ALG and ALG-1001 were also studied on VEGF-A expression by endothelial cells."}, "[1]": {"test_system": "choroidal neovascularization (CNV)", "test": "Laser CNV model, CNV area", "assay_type": "in vivo, Brown Norway rats", "description": "Animals were anesthetized through intraperitoneal injections of a ketamine/xylazine cocktail (ketamine 50 mg/kg and xylazine 10 mg/kg). Pupils are dilated with topical 2.5% Phenylephrine Hydrochloride solution followed by 0.5% Tetracaine Hydrochloride solution. To induce CNV formation, four equally spaced lesions will be created in the Bruch's membrane with a built-in laser system on the Micron III SLO. Laser power was set to […] with duration of 70 ms. Gonio ophthalmic solution was applied post-operatively to prevent eyes from drying and forming cataracts.\nOn the day of CNV induction (Day 0), D-ALG1001 and ALG1001 was administered intraperitoneally at a dose of 150 μg on a peptide basis. […]\nAfter fixation, the posterior segment of the eye was dissected out and the retina separated from the choroid. […] Samples for CNV quantification were imaged with an Axiovert phase contrast microscope. […]\nA Micron III SLO scope and laser attachment was used to induce CNV formation in mice. […] Whether dendrimer conjugation impeded the peptide from attenuating CNV was assessed by first injecting ALG-1001 and D-ALG intravitreally after CNV induction. The eyes were then collected on day 7 and CNV area quantified.\nThe protection and targeting of D-ALG allowed for less invasive administration routes. […] Choroidal flatmount of eyes at day 7 and 14 were imaged and the CNV area was calculated using ImageJ."}, "p44/42 ERK": {"test_system": "p44/42 ERK", "test": "Choroid total ERK and phospho-p44/42 ERK ELISA", "assay_type": "in vivo, Brown Norway rats", "description": "(§2) In brief, 500 μL of T-Per supplemented with PHOSSTOP® and proteinase inhibitor cocktail was added to tubes containing dissected choroid. A scoop of 1.6 mm steel homogenization beads was added to each sample and then placed in […]® LT (Qiagen) at an oscillation frequency of 50/s for 15 minutes. For qPCR, 200 μL of TRIZOL® was added to tubes containing choroid and a scoop of 1.6 mm steel homogenization beads was added. The samples were placed in […]® LT at an oscillation frequency of 50/s for 15 minutes.\nTo evaluate activation of FAK and ERK pathways, eyes were enucleated at set time points and the choroidal tissue dissected out. Tissues were submerged in a mixture of T-per, proteinase inhibitor, and PhosStop with stainless steel homogenization beads and homogenized to produce protein extracts. Total FAK, total ERK, p-FAK (Y397), and p-44/42 ERK ELISA kits were used to quantify the amount of total and phosphorylated proteins in FAK and ERK pathways. […] However, the level of total FAK protein in ALG-1001 treated animals was elevated at day 14."}, "TNFα": {"test_system": "TNFα", "test": "Choroid TNFα qPCR", "assay_type": "in vivo, Brown Norway rats", "conditions": "7 and 14 days", "description": "as §2\n(§3) 100 μL of chloroform was added to the Trizol suspension and the aqueous phase was separated with a centrifuge at 10K RPM at 4° C. for 15 minutes. 400 μL of 2-propanol was added to the aqueous solution and spun again to pellet the RNA. The RNA was washed with 70% ethanol solution, pelleted again, and re-suspended in DEPC (ultrapure treated to inactivated enzymes) water.\n(§4) To convert RNA to complementary DNA, 2 μg of RNA was converted using a High-Capacity cDNA Reverse Transcription Kit (Applied Biosystems, Foster City, CA). Samples were analyzed using STEPONE PLUS® real-time PCR system (Applied Biosystems) with SYBR Green reagent (ThermoFisher Scientific). Relative expression was quantified with ΔΔCt calculations normalized to controls. Primers for GAPDH was obtained from Bio-Rad Laboratories (Hercules, CA). Primers were purchased from Integrated DNA Technologies (Coralville, IA). […]"}, "IL1β": {"test_system": "IL1β", "test": "Choroid IL1β qPCR", "assay_type": "in vivo, Brown Norway rats", "conditions": "7 and 14 days", "description": "as §2, §3, §4"}, "proteinase K": {"molecular_target": "proteinase K (Parengyodontium album, UniProt P06873)", "sequence (P06873 106-384)": "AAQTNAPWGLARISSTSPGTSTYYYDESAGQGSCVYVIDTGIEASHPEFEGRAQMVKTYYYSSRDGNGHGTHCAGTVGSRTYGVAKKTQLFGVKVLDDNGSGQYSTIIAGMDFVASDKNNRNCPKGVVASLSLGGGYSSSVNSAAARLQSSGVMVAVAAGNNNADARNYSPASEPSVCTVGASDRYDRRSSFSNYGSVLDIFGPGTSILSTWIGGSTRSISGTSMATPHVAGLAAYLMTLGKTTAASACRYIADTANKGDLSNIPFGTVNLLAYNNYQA", "test": "in vitro", "conditions": "proteinase K (isolated protease)", "procedure": "Proteinase K stock solution was purchased from ThermoFisher and used as is. […] The mixture was incubated at 37° C. and at set time points, 100 μL of the mixture was removed and analyzed through HPLC."}},
  "note": "Values joined by “and” are separate entries in the source; they are usually repeats but may differ in a detail not shown here. Identical values can stand only once. Non-standard residues stand in square brackets, D forms with d. Residues, ends and D or L forms follow the SMILES beside them. Cya = N[C@@H](CS(=O)(=O)O)C(=O)O",
  "data": [
    {"compound": "C[C@@H](O)[C@H](NC(=O)[C@H](CS(=O)(=O)O)NC(=O)CNC(=O)[C@H](CCCNC(=N)N)NC(=O)CN)C(=O)N1CCC[C@H]1C(=O)O", "note": "[ALG-1001] (H-GRG[Cya]TP-OH; N-terminus and C-terminus assumed)", "values": [
      {"measurement": "reduction of phospho-ERK1/2", "setting": "ERK1/2", "result": "~60", "unit": "%"},
      {"measurement": "VEGF production compared to the control", "setting": "VEGF-A", "result": "did not have statistically significant increases"},
      {"measurement": "reduction of CNV formation", "setting": "[1]; day 7, intraperitoneal 150 μg peptide basis every 4 days", "result": "~60% and 40%"},
      {"measurement": "formation of CNV", "setting": "[1]; intravitreal, day 7", "result": "significantly inhibited"},
      {"measurement": "total ERK", "setting": "p44/42 ERK; day 7", "result": "remained relatively constant"},
      {"measurement": "total ERK", "setting": "p44/42 ERK; day 14, vs untreated animals", "result": "slight reduction"},
      {"measurement": "phospho-p44/42 ERK", "setting": "p44/42 ERK; rat, in vivo", "result": "decrease of p44/42 ERK production"},
      {"measurement": "TNFα level (qPCR)", "setting": "TNFα", "result": "lower TNFα levels across both time points"},
      {"measurement": "IL1β expression (qPCR)", "setting": "IL1β", "result": "only reduced at day 14"},
      {"measurement": "metabolised at 0.5 h, 2 mg/mL", "setting": "proteinase K", "result": "~50", "unit": "%"},
      {"measurement": "metabolised at […], 2 mg/mL", "setting": "proteinase K", "result": "~90", "unit": "%"}
    ]}
  ]
}
